Assay results published in patent US9587220B2, “Method for inducing cardiac differentiation of pluripotent stem cell” (Kyoto University, priority 2012, dated 2017).
“And” between values parts separate entries of the source, which are not always exact repeats. Equal entries are not always repeated.

How the values were obtained:
Assay type in all cases: cell-based, human
[1] = system: hESC lines (KhES-1, KhES-3), monkey ESC line (CMK6.4), mouse ESC line (R1), hiPSC lines (IMR90-1, IMR90-4, 253G1, RCHIPC0003); assay: Beating cardiac colony ratio in a variety of PSC lines treated with KY02111 (serum-containing medium); settings: KY02111 treatment, FIG. 1e
Experimental: All PSC lines were maintained on mitomycin C-treated mouse embryonic fibroblasts (MEF), in Primate ES Cell Culture Medium (ReproCELL Inc., Japan), with 5 ng ml^−1 bFGF for hPSCs, and without bFGF for monkey ESCs. Human ESC lines were KhES-1, KhES-3, H1, and H9 (Non-patent literatures 1, 41). Human iPSC lines were 253G1, IMR90-1, IMR90-4 (Non-patent literatures 42, 43), and RCHIPC0003. RCHIPC0003 was established from human fibroblasts by ReproCELL. The monkey ESC line was CMK6.4 (Non-patent literatures 1, 44, 45). The hESC line was used in conformity with the Guidelines for Derivation and Utilization of Human Embryonic Stem Cells of the Ministry of Education, Culture, Sports, Science, and Technology of Japan.
Confluent hESCs and hiPSCs were gently detached with CTK solution and transferred into Petri dishes (BD Biosciences) with Primate ES Cell Culture Medium (ReproCELL, Japan). Cells were held in suspension culture for 8-24 h to form aggregates. The sizes of hPSC aggregates (0.3-1 mm in diameter) are important for efficient differentiation. […] Beating colonies were counted on Day 9.

IMR90-1 hiPSCs = assay: Immunostaining of cardiac, pacemaker and fibroblast markers in differentiated hiPSCs
Experimental: Confluent hESCs and hiPSCs were gently detached with CTK solution and transferred into Petri dishes (BD Biosciences) with Primate ES Cell Culture Medium (ReproCELL, Japan). Cells were held in suspension culture for 8-24 h to form aggregates. The sizes of hPSC aggregates (0.3-1 mm in diameter) are important for efficient differentiation. Following suspension culture, cell aggregates were attached to culture dishes (3-10×10^5 cells cm^−2) in cardiac differentiation medium: IMDM (Sigma), containing 20% FBS (Gibco), 1% MEM non-essential amino acid solution (Sigma), 1% Penicillin-Streptomycin (Gibco), 2 mM L-glutamine (Sigma), 0.001% 2-Mercaptoethanol (Gibco), and 0.005N NaOH, with 10 ng ml^−1 BMP4 (R&D Systems). The medium was changed to cardiac differentiation medium with 10 μM KY02111 and/or other WNT inhibitors added on Day 3 (hiPSC lines) or Day 4 (human or monkey ESC lines); XAV939 (Wako, Japan), IWP-2 (Santa Cruz Biotechnology), IWR-1 (Merck4Bioscience), IGFBP4 (R&D Systems), Dkk1 (R&D Systems) and the mixture of bFGF (R&D Systems), BMP4 (R&D Systems), VEGF (R&D Systems), DKK1 (R&D Systems), and Activin A (R&D Systems) (Non-patent literature 16). Medium was changed every 2-3 d. KY02111 and other WNT inhibitors were added until Day 9 for hiPSC lines and the monkey ESC line, or Day 14 for hESC lines. On Day 15, cardiac cell colonies on dishes were incubated with protease solution (0.1% collagenase type I, 0.25% trypsin, 1 U ml^−1 DNase I, 116 mM NaCl, 20 mM HEPES, 12.5 mM NaH2PO4, 5.6 mM glucose, 5.4 mM KCl, and 0.8 mM MgSO4, pH 7.35) for 0.5-2 h, until all cardiac colonies were detached from the bottom of the wells. The detached cardiac colonies were transferred into 15 ml tubes with fresh cardiac differentiation medium and precipitated by gravity, and the supernatant was removed by aspiration. The cardiac colonies were then transferred into Ultra-low culture dishes (Corning, 3261) or 6-well plates (Corning, YO-01835-24) in cardiac differentiation medium without both serum and NaOH. The floating cardiac colonies were maintained for more than 1 month, and the media were changed every 5 d. A differentiation method of mouse ESC (R1 line) was carried out as previously described^46, and KY02111 was added during Days 3-6. Beating colonies were counted on Day 9.
Cardiac colonies were dissociated by stirring for 1-2 h at 37° C. with the protease solution described above, cultured for 1 d on cover glasses coated with gelatin (Sigma), and fixed with 4% paraformaldehyde. After permeabilizing with Triton X, the cells were treated with 2% skim milk for 1-2 h, then incubated with primary antibodies for 2 h: NKX2.5 (rabbit polyclonal, 1:250; Abcam), αActinin (mouse monoclonal, 1:800; Sigma), cardiac TnT (mouse monoclonal, 1:100; Santa Cruz Biotechnology), Vimentin (mouse monoclonal, 1:800; Sigma V6630), and HCN4 (mouse monoclonal, 1:400; Abcam). The secondary antibodies used were Alexa546-conjugated anti-mouse IgG, Alexa488-conjugated anti-mouse IgG, and Alexa488-conjugated anti-rabbit IgG (1:1000; all from Molecular Probes, Invitrogen). Nuclei were visualized by DAPI. Images were captured under fluorescent microscopy (Olympus). The number of cTnT, αActinin, NKX2.5, HCN4, and Vimentin-positive cells were counted from three random areas, using the Metamorph imaging system (Molecular Devices). […] Cells were analyzed using a FACS CantoII flow cytometer (BD Biosciences). Data was analyzed using FACADiva software (BD Biosciences).

[2] = system: KY02111-induced cardiomyocytes (KY-CMs); assay: qPCR of cardiac marker and ion channel genes in KY02111-induced cardiomyocytes; settings: Days 15 and 30
Experimental: Total RNA was isolated with an RNeasy Mini Kit (QIAGEN). Genomic DNA was completely digested with DNase I (Invitrogen). Total RNA (0.5 μg) was subjected to cDNA synthesis using the SuperScript III Reverse Transcriptase (Invitrogen). qRT-PCR was performed in triplicate, using SYBER GREEN PCR Master Mix on a 7500 Real Time PCR System (Applied Biosystems). The cycling conditions were as follows: 10 min at 95° C.; 40 cycles, each consisting of 15 s at 95° C.; 1 min at 60° C. Total RNA from human adult heart tissue (BioChain) was used to evaluate the expression levels of cardiac marker genes for cardiomyocytes derived from hPSCs. All values were normalized with respect to GAPDH expression level and expressed relative to the corresponding values in human adult hearts (100%).

COc1ccc(CCC(=O)Nc2nc3ccc(Cl)cc3s2)cc1OC [KY02111, 2-(3-(3,4-dimethoxyphenyl)propanamide)-6-chlorobenzothiazole]
ratio of beating colonies per all of colonies on culture dish [1]: 60-94% and 70-90% | SMA (smooth muscle marker) expression (IMR90-1 hiPSCs; data not shown): almost undetectable | Vimentin-positive ratio (IMR90-1 hiPSCs; serum-containing medium): 20% | cells positive for pacemaker marker HCN4 (IMR90-1 hiPSCs; serum-containing medium): 16% | cTnT-positive cells (IMR90-1 hiPSCs; serum-containing medium, FIG. 10b): approximately 80% | decrease of ratio of Vimentin-positive cells (fibroblasts) (IMR90-1 hiPSCs; versus DMSO): 3.3 fold | expression of ion channel genes in KY-CMs relative to adult heart tissue [2]: equivalent to those of adult heart tissue
